Test results as given in patent US12728168B2, “Anti-CEA antibody-exatecan analog conjugate and pharmaceutical use thereof” (JIANGSU HENGRUI MEDICINE CO., LTD., priority 2019, dated 2026).
Values belong to the molecule of their own block, whether it stands above or below them.

Key:
[1] = tested on: SK-BR-3 tumor cells (human breast cancer cells); assay: Inhibition of in vitro proliferation of SK-BR-3 cells (CTG); format: cell-based; conditions: 6 days of culture
Method: (§1) This experiment was intended to test the inhibitory activity of the pharmaceutical compounds of the present disclosure against the in vitro proliferation of U87MG cells (Cell Bank, Chinese Academy of Sciences, Cat #TCHu138) and SK-BR-3 tumor cells (human breast cancer cells, ATCC, Cat #HTB-30). The cells were treated in vitro with a compound at different concentrations. After 6 days of culture, the proliferation of cells was tested using CTG (CellTiter-Glo® Luminescent Cell Viability Assay, Promega, Cat #G7573) reagents, and the in vitro activity of the compound was evaluated according to IC50 value.
(§2) The test for the inhibition of the in vitro proliferation of U87MG cells was taken as an example to illustrate the method of the present invention for testing the inhibitory activity of the compounds of the present invention against the in vitro proliferation of tumor cells. […]
(§3) Different test samples at 100 nM or 5 μM (100 μL) were added to the first column of a 96-well plate, and 100 μL of PBS was added to each well of the second column through the eleventh column. […] Plate reading: the 96-well cell culture plate was taken out and tested in a microplate reader (BMG labtech, PHERAstar FS) for chemiluminescence. […]
(§4) Data were processed and analyzed using Microsoft Excel and Graphpad Prism 5.

U87MG cells = assay: Inhibition of in vitro proliferation of U87MG cells (CTG); format: cell-based; conditions: Homo sapiens, U-87 MG, 6 days of culture, read-out: IC50 (nM) U87
Method: as §1, §2, §3, §4

[2] = biological target: T1, human CEACAM1 expressed on CHO cell surface (CEACAM1-CHO) (Homo sapiens, UniProt P13688); assay: FACS binding assay, CEACAM1-CHO cells
T1 construct: expressed in transfected cells; host or cells: CHO cells
T1 sequence (P13688 35-526): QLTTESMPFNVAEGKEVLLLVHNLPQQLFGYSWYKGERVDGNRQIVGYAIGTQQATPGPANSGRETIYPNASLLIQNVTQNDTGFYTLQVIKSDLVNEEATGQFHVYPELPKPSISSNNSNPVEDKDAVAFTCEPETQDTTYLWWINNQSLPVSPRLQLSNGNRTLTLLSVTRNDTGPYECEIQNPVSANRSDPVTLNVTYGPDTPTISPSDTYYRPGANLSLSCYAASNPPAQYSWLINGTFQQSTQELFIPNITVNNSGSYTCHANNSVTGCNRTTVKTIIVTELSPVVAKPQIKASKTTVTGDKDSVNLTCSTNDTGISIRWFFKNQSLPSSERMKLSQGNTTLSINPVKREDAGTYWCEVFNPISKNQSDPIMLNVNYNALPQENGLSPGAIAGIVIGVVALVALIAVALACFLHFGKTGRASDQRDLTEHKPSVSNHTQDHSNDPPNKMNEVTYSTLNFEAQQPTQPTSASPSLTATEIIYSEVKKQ
Method: In order to detect the binding of the antibody to the CEA protein on the cell surface, the binding activity of the antibody was determined by FACS using cells expressing CEA on the cell surface. Cells were harvested and centrifuged at 400 g at 4° C. for 5 min. Pre-cooled PBS containing FBS at final concentration 10% was added, and the mixture was centrifuged at 400 g at 4° C. for 5 min; the procedures were repeated twice. The cells were seeded into a 96-well plate at 10^5 cells/well, and 100 μL of gradient diluted antibody solution was added to each well. The plate was incubated at 4° C. for 60 min and centrifuged, and the supernatant was removed. 250 μL of pre-cooled PBS containing FBS at final concentration 10% was added to each well to resuspend the cells, and the suspension was centrifuged at 400 g at 4° C. for 5 min, followed by the removal of the supernatant; the procedures were repeated twice. 50 μL of 1:200 diluted secondary antibody Alexa Fluor@488 goat anti-human IgG (H+L) (Lifetechologies, Cat #A11013) was added. The plate was incubated in the dark at 4° C. for 45 min and centrifuged, and the supernatant was removed. 250 μL of pre-cooled PBS containing FBS at final concentration 10% was added to each cell to resuspend the cells, and the suspension was centrifuged at 400 g at 4° C. for 5 min; the procedures were repeated twice. 100 μL of pre-cooled PBS was added to each well to resuspend the cells. The plate was analyzed by a flow cytometer (BD, FACSverse) for fluorescence signal values. Higher values indicate higher binding activity of the antibody to the protein on the cell surface. Binding curves were plotted using PRISM analysis software based on the assay results, and the EC50 values for the binding activity of the antibody to the cell surface proteins human CEA (MKN45 human gastric cancer cells, Nanjing Kebai Biotechnology Co., Ltd., Cat #CBP60488), cynoCEA-CHO and CEACAM1-CHO were obtained by fitting.

Molecule: CC[C@@]1(O)C(=O)OCc2c1cc1n(c2=O)Cc2c-1nc1cc(F)c(C)c3c1c2[C@@H](NC(=O)[C@@H](O)C1CC1)CC3 [1-A, (S)-2-cyclopropyl-N-((1S,9S)-9-ethyl-5-fluoro-9-hydroxy-4-methyl-10,13-dioxo-2,3,9,10,13,15-hexahydro-1H,12H-benzo[de]pyrano[3′,4′:6,7]indolizino[1,2-b]quinolin-1-yl)-2-hydroxyacetamide]
IC50 [1]: 8.11 nM
IC50 (U87MG cells): 2.31 nM

Molecule: CC[C@@]1(O)C(=O)OCc2c1cc1n(c2=O)Cc2c-1nc1cc(F)c(C)c3c1c2[C@@H](NC(=O)[C@H](O)C1CC1)CC3 [1-B, (R)-2-cyclopropyl-N-((1S,9S)-9-ethyl-5-fluoro-9-hydroxy-4-methyl-10,13-dioxo-2,3,9,10,13,15-hexahydro-1H,12H-benzo[de]pyrano[3′,4′:6,7]indolizino[1,2-b]quinolin-1-yl)-2-hydroxyacetamide]
IC50 [1]: 0.33 nM
IC50 (U87MG cells): 0.86 nM

EC50 (nM) CEACAM1-CHO ([2]; Table 17, humanized antibodies and controls): No binding
Molecule: Sanofi: the antibody in SAR-408701 (Sanofi), heavy chain SEQ ID NO: 88, light chain SEQ ID NO: 89; positive control [reference compound]

EC50 (nM) CEACAM1-CHO ([2]; Table 1, murine antibodies): No binding
B1: mAb67: murine anti-CEA monoclonal antibody, VH SEQ ID NO: 11, VL SEQ ID NO: 12 (antibody, V domains shown)
VH: EVQLQQSGPELVKPGASVKIYCKASGYTFTDYHMNWVKQSHGKSLEWIGDINPDIGGTSYNQNFKGKATLTVDKSSSTAYMELRSLTSEDSAVYYCSRWDFDSFANWGQGTLVTVSA
VL: DIVMTQSPASLAMSLGKRATISCRASESVSIIGTNLIHWYQQKPGQPPKLLIYHASNLETGVPARFSGSGSGADFTLTIDPVEGDDVALYYCLQSRKIPYTFGGGTKMEIK

EC50 (nM) CEACAM1-CHO ([2]; Table 1, murine antibodies): No binding
B2: mAb103: murine anti-CEA monoclonal antibody, VH SEQ ID NO: 13, VL SEQ ID NO: 14 (antibody, V domains shown)
VH: QIQLVQSGPELKKPGETVKISCKASGYTFTTYGVIWVKQAPGKGLKWMGWINTYSGVPTYADDFKGRFAFSLETSASTAFLQINNLKNEDTATYFCARKKTLTTVTPWFAYWGQGTLVTVSA
VL: DLVVTQSSSASFSLGASAKLTCTLSSQHSTYTIEWYQQQPLKPPKYVMELKKDGSHSTGDGIPDRFSGSSSGADRYLTISNIQPEDEAIYICGVGNTIKEQFVYVFGGGTKVTVL

EC50 (nM) CEACAM1-CHO ([2]; Table 1, murine antibodies): No binding
B3: mAb63: murine anti-CEA monoclonal antibody, VH SEQ ID NO: 9, VL SEQ ID NO: 10 (antibody, V domains shown)
VH: EVQLQQSGPELVKPGASVKMSCKASGYTFTDFYMNWVRQSHGKSLEWIGDIFPKNGNTDYNRKFKDKATLTVDKSSNTVYMEFRSLTLEDSAIYFCARSGYGNYVFDYWGQGTIFTVSS
VL: DVQMTQTPSALSASLGDRVTISCRTSQDINIYLNWYQQKPDGTVKLLIYYRSGLLSGVPSRFSGSGSGTDYSLTISNLEPEDIATYFCQQGNTLPPTFGGGTKLEIK
